How the values were obtained:
Assay type in all cases: cell-based
[1] = test system: BE(1)N; assay: Silvestrol in neuroblastoma cell lines in vitro: BE(1)N; settings: BE(1)N cells, N-MYC
Experimental: (§1) The effect of silvestrol on several neuroblastoma cell lines was evaluated.

[2] = test system: human T-ALL lines; assay: Activity in established human T-ALL cell lines; settings: PTEN wild type vs PTEN mutant
[3] = test system: PANC-1; assay: Silvestrol sensitivity and KRAS protein levels in PANC-1
Text: KRAS has a long T1/2 compared to MYC, and therefore the effect is less pronounced. The in vitro activity of an S6 kinase inhibitor, rapamycin, silvestrol and combinations on PNAC1 and MiaPaca2 cells are shown in FIGS. 24B and 24C, respectively.

[4] = test system: SKNCM; assay: Silvestrol in neuroblastoma cell lines in vitro: SKNCM; settings: SKNCM cells
Experimental: as §1

[5] = test system: renal carcinoma lines; assay: Silvestrol sensitivity of renal carcinoma lines; settings: ACHN, A498, CAKI-1, CAKI-2 to 786-O

COC(=O)[C@H]1[C@@H](O)[C@@]2(O)c3c(OC)cc(O[C@@H]4O[C@@H]([C@H](O)CO)CO[C@H]4OC)cc3O[C@@]2(c2ccc(OC)cc2)[C@@H]1c1ccccc1 [silvestrol] was tested. Which IC50 [1] did it give?
Its IC50 is 2.52 nM.

And the “activity against PTEN wild type and PTEN mutant cell lines and primary T-ALL cells” value [2]?
The value was “equal activity”.

What about the KRAS expression ([3]; PANC1 cells, 50 nM) of the same compound?
Its KRAS expression is “loss of KRAS expression”.

And the KRAS expression ([3]; PANC-1, 20 nM)?
Its KRAS expression is “loss of KRAS expression”.

And the IC50 [4]?
Its IC50 is 20.2 nM.

And the sensitivity [5]?
The sensitivity was “range of sensitivities”.

From patent US20150219624A1, “METHODS FOR IDENTIFYING ANTI-CANCER COMPOUNDS” (MEMORIAL SLOAN KETTERING CANCER CENTER, priority 2013, published 2015)
